Laboratory results from patent EP4678634A1, “ANDROGEN RECEPTOR MODULATORS AND USES THEREOF” (Haihe Biopharma Co., Ltd., priority 2023, dated 2024).
pIC50: −log10 of the molar value.

molecular target: T1, Androgen receptor (AR) (Homo sapiens, UniProt P10275); assay: Androgen receptor (AR) reporter gene assay (luciferase); type: cell-based; details: AR+ARE/Luc HEK293T cells, stimulated with 11-KDHT, 24h incubation, Bright-Lite luminescence; read-out: HEK293 Luc IC50
T1 construct: expressed in transfected cells; host or cells: HEK293T (AR+ARE/Luc)
T1 sequence (P10275 1-920): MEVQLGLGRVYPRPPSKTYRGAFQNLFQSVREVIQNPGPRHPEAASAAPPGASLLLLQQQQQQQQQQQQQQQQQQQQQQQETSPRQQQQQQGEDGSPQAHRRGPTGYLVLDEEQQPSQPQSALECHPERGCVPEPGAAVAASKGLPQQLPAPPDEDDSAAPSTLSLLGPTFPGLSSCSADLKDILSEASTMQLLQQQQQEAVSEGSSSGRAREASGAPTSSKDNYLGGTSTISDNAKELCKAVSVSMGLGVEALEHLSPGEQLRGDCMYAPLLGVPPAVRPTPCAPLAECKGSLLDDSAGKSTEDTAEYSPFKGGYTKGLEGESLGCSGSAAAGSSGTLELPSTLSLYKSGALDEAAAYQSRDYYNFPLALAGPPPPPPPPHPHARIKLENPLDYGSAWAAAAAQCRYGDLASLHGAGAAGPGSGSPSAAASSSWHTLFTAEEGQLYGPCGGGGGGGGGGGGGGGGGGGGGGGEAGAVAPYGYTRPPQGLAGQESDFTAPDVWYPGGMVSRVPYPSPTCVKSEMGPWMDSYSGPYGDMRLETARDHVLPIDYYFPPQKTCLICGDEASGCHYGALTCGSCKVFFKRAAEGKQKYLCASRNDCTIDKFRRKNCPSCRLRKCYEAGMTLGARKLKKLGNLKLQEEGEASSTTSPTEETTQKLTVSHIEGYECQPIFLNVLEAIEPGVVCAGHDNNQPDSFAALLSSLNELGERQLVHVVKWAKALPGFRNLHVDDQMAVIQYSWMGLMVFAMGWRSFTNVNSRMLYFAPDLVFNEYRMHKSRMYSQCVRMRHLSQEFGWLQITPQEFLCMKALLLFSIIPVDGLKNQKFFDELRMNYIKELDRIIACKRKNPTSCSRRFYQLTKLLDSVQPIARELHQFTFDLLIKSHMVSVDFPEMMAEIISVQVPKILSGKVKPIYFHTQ
Method: Androgen receptor (AR) reporter gene assay
Experimental reagents: 11-Ketodihydrotestosterone (11-KDHT) was purchased from MCE (cat.HY-135794); Enzalutamide (MDV3100) was purchased from Selleck (cat.S1250); Bright-Lite Luciferase Assay kit was purchased from Vazyme (cat.DD1204-01);
• 1. dissolve the described compounds in 100% DMSO at a final concentration of 10 mM. 100 nL each of 400X compound to be tested and 400X 11-KDHT (40 nM) were added to a 384-well assay plate with Echo, followed by 20 µL of complete medium, and centrifuged at 1000 rpm for 1 min, and oscillated for 20-30 min at room temperature. • 2. 20 µL of AR+ARE/Luc HEK293T cells (10,000 cells/well) were inoculated into the assay plate containing the compounds and 11-KDHT, and centrifuged at 1000 rpm for 1 min. The assay plate was incubated in a 37 °C CO2 incubator for 24h. • 3. 40 µL of Bright-Lite assay reagent was transferred to each well of the assay plate, centrifuged at 1000 rpm for 1 min, and shaken for 2 min at room temperature protected from light. Luminescence values (RLU) were measured using Envision. Based on the results, the IC50 values of the compounds described were calculated. Table 1 HEK293-Luc% inhibition IC50 of representative compounds

| SMILES | pIC50 |
| --- | --- |
| N#Cc1cc2c(c(Cl)c1OCCC(F)(F)F)CCCC2c1cnc2[nH]ncc2c1 (stereo not shown) [HANT-171] | 5.70 to 6.00 |
| N#Cc1cc2c(c(Cl)c1OCCCl)CCCC2Nc1cccc2[nH]ncc12 (stereo not shown) [HANT-173] | 6.30 to 9.00 |
| N#Cc1cc2c(c(Cl)c1OCCCl)CCCC2Nc1cc[nH]n1 (stereo not shown) [HANT-175] | 5.70 to 6.00 |
| CNC(=O)c1cc2c(c(Cl)c1OCCCl)CCCC2c1cnc2[nH]ncc2c1 (stereo not shown) [HANT-183, 4-chloro-3-(2-chloroethoxy)-N-methyl-8-(1H-pyrazolo[3,4-b]pyridin-5-yl)-5,6,7,8-tetrahydrona phthalene-2-carboxamide] | 5.70 to 6.00 |
| NCc1cc2c(c(Cl)c1OCCCl)CCCC2c1cnc2[nH]ncc2c1 (stereo not shown) [HANT-184] | 6.00 to 6.30 |
| N#Cc1cc2c(c(Cl)c1OCCCl)CCCC2NC(=O)c1ccc2[nH]ncc2c1 (stereo not shown) [HANT-186] | 6.30 to 9.00 |
| N#Cc1cc2c(c(Cl)c1OCCCl)CCCC2NC(=O)c1cn[nH]c1 (stereo not shown) [HANT-187] | 6.30 to 9.00 |
| N#Cc1cc2c(c(Cl)c1OCCCl)CCCC2NC(=O)c1cc[nH]n1 (stereo not shown) [HANT-188] | 6.00 to 6.30 |
| N#Cc1cc2c(c(Cl)c1OCCCl)CCCC2Nc1ccc2[nH]ncc2n1 (stereo not shown) [HANT-191, 8-((1H-pyrazolo[4,3-b]pyridin-5-yl)amino)-4-chloro-3-(2-chloroethoxy)-5,6,7,8-tetrahydronaph thalene-2-carbonitrile] | 6.30 to 9.00 |
| N#Cc1cc2c(c(Cl)c1OCCCl)CCCC2c1cccc2[nH]ncc12 (stereo not shown) [HANT-193, 4-chloro-3-(2-chloroethoxy)-8-(1H-indazol-7-yl)-5,6,7,8-tetrahydronaphthalene-2-cyanide] | 6.30 to 9.00 |
| N#Cc1cc2c(c(Cl)c1OCCCl)CCCC2c1cccc2cn[nH]c12 (stereo not shown) [HANT-194] | 6.30 to 9.00 |
| CCCOc1c(C#N)cc2c(c1Cl)CCCC2c1cnc2[nH]ncc2c1 (stereo not shown) [HANT-196, 4-chloro-3-propoxy-8-(1H-pyrazolo[3,4-b]pyridin-5-yl)-5,6,7,8-tetrahydronaphthalene-2-carbo nitrile] | 6.30 to 9.00 |
| N#Cc1cc2c(c(Cl)c1OCCCl)CCCC2c1cn[nH]c1 (stereo not shown) [HANT-200] | 6.00 to 6.30 |
| N#Cc1cc2c(c(Cl)c1OCCCl)CCCC2c1cnc2[nH]c(=O)ccc2c1 (stereo not shown) [HANT-202] | 6.30 to 9.00 |
| N#Cc1cc2c(c(Cl)c1OCCCl)CCCC2c1ccc(N)nc1 (stereo not shown) [HANT-203] | 6.30 to 9.00 |
| N#Cc1cc2c(c(Cl)c1OCCCl)CCC[C@@H]2c1cnc(N)nc1 [HANT-204A] | < 5.70 |
| N#Cc1cc2c(c(Cl)c1OCCCl)CCC[C@H]2c1cnc(N)nc1 [HANT-204B] | 6.30 to 9.00 |
| CC(=O)Nc1ccc(C2CCCc3c2cc(C#N)c(OCCCl)c3Cl)cn1 (stereo not shown) [HANT-205] | 6.30 to 9.00 |
| CNC(=O)Oc1ccc(C2CCCc3c2cc(C#N)c(OCCCl)c3Cl)cc1 (stereo not shown) [HANT-206, 4-(5-chloro-6-(2-chloroethoxy)-7-cyano-1,2,3,4-tetrahydronaphthalen-1-yl)phenyl methylcarbamate] | 6.30 to 9.00 |
| N#Cc1cc2c(c(Cl)c1OCCCl)CCCC2c1cnc2[nH]c(=O)oc2c1 (stereo not shown) [HANT-207, 4-chloro-3-(2-chloroethoxy)-8-(2-oxo-2,3-dihydrooxazolo[4,5-b]pyridin-6-yl)-5,6,7,8-tetrahydr onaphthalene-2-carbonitrile] | 6.00 to 6.30 |
| N#Cc1cc2c(c(Cl)c1OCCCl)CCCC2c1ccc2oc(=O)[nH]c2c1 (stereo not shown) [HANT-208] | 6.30 to 9.00 |
| N#Cc1cc2c(c(Cl)c1OCCCl)CCCC2NC(=O)C1CCCCC1 (stereo not shown) [HANT-209] | 6.00 to 6.30 |
| N#Cc1cc2c(c(Cl)c1OCCCl)CCCC2NC(=O)c1ccccc1 (stereo not shown) [HANT-212] | 6.30 to 9.00 |
| N#Cc1cc2c(c(Cl)c1OCCCl)CCCC2NC(=O)c1cccnc1 (stereo not shown) [HANT-213] | 5.70 to 6.00 |
| N#Cc1cc2c(c(Cl)c1OCCCl)CCCC2NC(=O)c1ccncc1 (stereo not shown) [HANT-214] | 6.00 to 6.30 |
| N#Cc1cc2c(c(Cl)c1OCCCl)CCCC2NC(=O)c1ccccn1 (stereo not shown) [HANT-215] | 6.30 to 9.00 |

| SMILES | pIC50 |
| --- | --- |
| N#Cc1cc2c(c(Cl)c1OCCCl)CCCC2c1cnc2[nH]nc(-c3ccncc3)c2c1 (stereo not shown) [HANT-218, 4-chloro-3-(2-chloroethoxy)-8-(3-(pyridin-4-yl)-1H-pyrazolo[3,4-b]pyridin-5-yl)-5,6,7,8-tetrah ydronaphthalene-2-carbonitrile] | 6.30 to 9.00 |
| N#Cc1cc2c(c(Cl)c1OCCCl)CCCC2c1cnc2[nH]nc(C3CCOCC3)c2c1 (stereo not shown) [HANT-220, 4-chloro-3-(2-chloroethoxy)-8-(3-(tetrahydro-2H-pyran-4-yl)-1H-pyrazolo[3,4-b]pyridin-5-yl)-5,6,7,8-tetrahydronaphthalene-2-cyanide] | < 5.70 |
| N#Cc1cc2c(c(Cl)c1OCCCl)CCCC2Nc1cc2cn[nH]c2cn1 (stereo not shown) [HANT-224] | 6.30 to 9.00 |
| N#Cc1cc2c(c(Cl)c1OCCCl)CCCC2Nc1ccc2[nH]ncc2c1 (stereo not shown) [HANT-225, 8-((1H-indazol-5-yl)amino)-4-chloro-3-(2-chloroethoxy)-5,6,7,8-tetrahydronaphthalene-2-carb onitrile] | 6.30 to 9.00 |
| N#Cc1cc2c(c(Cl)c1OCCCl)CCCC2Nc1ccccc1 (stereo not shown) [HANT-226] | 6.30 to 9.00 |
| N#Cc1cc2c(c(Cl)c1OCCCl)CCCC2Nc1cccnc1 (stereo not shown) [HANT-227] | 6.30 to 9.00 |
| N#Cc1cc2c(c(Cl)c1OCCCl)CCCC2Nc1ccncc1 (stereo not shown) [HANT-228] | < 5.70 |
| N#Cc1cc2c(c(Cl)c1OCCCl)CCCC2Nc1ccc2cn[nH]c2c1 (stereo not shown) [HANT-229, 8-((1H-indazol-6-yl)amino)-4-chloro-3-(2-chloroethoxy)-5,6,7,8-tetrahydronaphthalene-2-carb onitrile] | 6.30 to 9.00 |
| N#Cc1cc2c(c(Cl)c1OCCCl)CCCC2NC(=O)c1ccc(Cl)cc1 (stereo not shown) [HANT-232] | 6.30 to 9.00 |
| N#Cc1cc2c(c(Cl)c1OCCCl)CCCC2NC(=O)c1cccc(Cl)c1 (stereo not shown) [HANT-233] | 6.30 to 9.00 |
| N#Cc1ccc(C(=O)NC2CCCc3c2cc(C#N)c(OCCCl)c3Cl)cc1 (stereo not shown) [HANT-234] | 6.30 to 9.00 |
| COc1ccc(C(=O)NC2CCCc3c2cc(C#N)c(OCCCl)c3Cl)cc1 (stereo not shown) [HANT-235] | 6.00 to 6.30 |
| N#Cc1cc2c(c(Cl)c1OCCCl)CCCC2Nc1cn[nH]c1 (stereo not shown) [HANT-239, 8-((1H-pyrazol-4-yl)amino)-4-chloro-3-(2-chloroethoxy)-5,6,7,8-tetrahydronaphthalene-2-carb onitrile] | 6.00 to 6.30 |
| N#Cc1cc2c(c(Cl)c1OCCCl)CCCC2Nc1ccc(N)nc1 (stereo not shown) [HANT-240, 8-((6-aminopyridin-3-yl)amino)-4-chloro-3-(2-chloroethoxy)-5,6,7,8-tetrahydronaphthalene-2-c arbonitrile] | 6.00 to 6.30 |
| COc1ccc(NC2CCCc3c2cc(C#N)c(OCCCl)c3Cl)cn1 (stereo not shown) [HANT-241] | 6.30 to 9.00 |
| N#Cc1cc2c(c(Cl)c1OCCCl)CCCC2c1cncnc1 (stereo not shown) [HANT-246] | 6.30 to 9.00 |
| CNc1ncc(C2CCCc3c2cc(C#N)c(OCCCl)c3Cl)cn1 (stereo not shown) [HANT-247, 4-chloro-3-(2-chloroethoxy)-8-(2-(methylamino)pyrimidin-5-yl)-5,6,7,8-tetrahydronaphthalene-2-carbonitrile] | 6.30 to 9.00 |
| N#Cc1cc2c(c(Cl)c1OCCCl)CCCC2c1cnc(NCCO)nc1 (stereo not shown) [HANT-248, 4-chloro-3-(2-chloroethoxy)-8-(2-((2-hydroxyethyl)amino)pyrimidin-5-yl)-5,6,7,8-tetrahydrona phthalene-2-carbonitrile] | 6.30 to 9.00 |
| N#Cc1cc2c(c(Cl)c1OCCCl)CCCC2c1cnc(N)cn1 (stereo not shown) [HANT-249] | 6.00 to 6.30 |
| N#Cc1cc2c(c(Cl)c1OCCCl)CCCC2Nc1cncnc1 (stereo not shown) [HANT-250] | 6.30 to 9.00 |
| N#Cc1cc2c(c(Cl)c1OCCCl)CCCC2Nc1cnc(N)nc1 (stereo not shown) [HANT-251] | 6.30 to 9.00 |
| N#Cc1cc2c(c(Cl)c1OCCCl)CCCC2Nc1ccccn1 (stereo not shown) [HANT-252] | 6.30 to 9.00 |
| N#Cc1cc2c(c(Cl)c1OCCCl)CCCC2Nc1cncc(F)c1 (stereo not shown) [HANT-254] | 6.30 to 9.00 |
| N#Cc1cc2c(c(Cl)c1OCCCl)CCCC2c1cccnc1 (stereo not shown) [HANT-255] | 6.30 to 9.00 |
| N#Cc1cc2c(c(Cl)c1OCCCl)CCCC2c1cncc(N)c1 (stereo not shown) [HANT-256] | 5.70 to 6.00 |
| CCCOc1c(C#N)cc2c(c1Cl)CCCC2c1cnc(N)nc1 (stereo not shown) [HANT-257] | 6.30 to 9.00 |
